Experimental findings from US9981964B2 (Agency for Science, Technology and Research, priority 2013, dated 2018) are described below.

This assay has as its system HEK293-STF3A cells. As to the kind of experiment: STF3A assay (STF luciferase reporter in Wnt3A-expressing HEK293 cells). The class given is cell-based. The note with it: Homo sapiens, 24 h, 1 day of treatment. An excerpt:
HEK293-STF cell line was modified from Human embryonic kidney cell line HEK293 transfected with the STF reporter. HEK293-STF3A cell line was further modified from HEK293-STF cell line to express Wnt3A. This cell line was used to identify compounds that regulate either early or late signaling components of the Wnt pathway. These two cell lines were obtained from David Virshup's laboratory, Duke-NUS. L-Wnt3A (ATCC, #CRL-2647) cell line was used for providing Wnt3A conditioned media. The three cell lines were grown in DMEM with 10% FBS incubated in 37° C. with 5% CO2.
2×10^4 HEK293-STF3A cells in 75 μl culture media were seeded in each well of white 96 well plates (Greiner #655098) and incubated overnight at 37° C. 25 μl serially diluted compound was added to the cells to give final concentration of 50 μM to 1.5 nM. After 1 day of treatment, 100 μl of Steady-Glo Luciferase Assay reagent (#E2520, Promega) was added to each well and incubated for 10 minutes at room temperature. Luminescence was measured using Tecan Safire2 plate reader.
On the technique in general: A reporter such as luciferase makes a cellular process visible.

Consider `CN1C(=O)C2=C(C1=O)N(CC(=O)Nc1ccc(-c3ccc(C(F)(F)F)nc3)nn1)CCC2` [Compound 45, 2-(6-methyl-5,7-dioxo-2,3,4,5,6,7-hexahydro-1H-pyrrolo[3,4-b]pyridin-1-yl)-N-(6-(6-(trifluoromethyl)pyridin-3-yl)pyridazin-3-yl)acetamide], for which the IC50 is under 5000 nM.

For the compound `CN1C(=O)C2=C(C1=O)N(CC(=O)Nc1ccc(-c3ccc(F)nc3)nn1)CCC2` [Compound 46, N-(6-(6-fluoropyridin-3-yl)pyridazin-3-yl)-2-(6-methyl-5,7-dioxo-2,3,4,5,6,7-hexahydro-1H-pyrrolo[3,4-b]pyridin-1-yl)acetamide], the half-maximal inhibitory concentration (IC50) was under 100 nM.

On to `CN1C(=O)C2=C(C1=O)N(CC(=O)Nc1ccc(-c3cccnn3)cc1)CCC2` [Compound 47, 2-(6-methyl-5,7-dioxo-2,3,4,5,6,7-hexahydro-1H-pyrrolo[3,4-b]pyridin-1-yl)-N-(4-(pyridazin-3-yl)phenyl)acetamide], for which the half-maximal inhibitory concentration (IC50) is under 1000 nM.

The compound `CN1C(=O)C2=C(C1=O)N(CC(=O)Nc1ccc(-c3cncc(C(F)(F)F)c3)nn1)CCC2` [Compound 48, 2-(6-methyl-5,7-dioxo-2,3,4,5,6,7-hexahydro-1H-pyrrolo[3,4-b]pyridin-1-yl)-N-(6-(5-(trifluoromethyl)pyridin-3-yl)pyridazin-3-yl)acetamide] yielded a half-inhibitory concentration (IC50) of under 100 nM.

`CN1C(=O)C2=C(C1=O)N(CC(=O)Nc1ccc(-c3ccc(C(F)(F)F)cc3)nn1)CCC2` [Compound 49, 2-(6-methyl-5,7-dioxo-2,3,4,5,6,7-hexahydro-1H-pyrrolo[3,4-b]pyridin-1-yl)-N-(6-(4-(trifluoromethyl)phenyl)pyridazin-3-yl)acetamide]: the 50% inhibitory concentration (IC50) is under 10000 nM.

As to `CN1C(=O)C2=C(C1=O)N(CC(=O)Nc1ccc(-c3cccc(C(F)(F)F)c3)nn1)CCC2` [Compound 50, 2-(6-methyl-5,7-dioxo-2,3,4,5,6,7-hexahydro-1H-pyrrolo[3,4-b]pyridin-1-yl)-N-(6-(3-(trifluoromethyl)phenyl)pyridazin-3-yl)acetamide], the IC50 was under 100 nM.

`O=C(CN1CCCC2=C1C(=O)N(C1CC1)C2=O)Nc1ccc(-c2ccc(C(F)(F)F)cc2)nn1` [Compound 51, 2-(6-cyclopropyl-5,7-dioxo-2,3,4,5,6,7-hexahydro-1H-pyrrolo[3,4-b]pyridin-1-yl)-N-(6-(4-(trifluoromethyl)phenyl)pyridazin-3-yl)acetamide]: the IC50 is under 1000 nM.

`Cc1cncc(-c2ccc(NC(=O)CN3CCCC4=C3C(=O)N(C3CC3)C4=O)nn2)c1` [Compound 53, 2-(6-cyclopropyl-5,7-dioxo-2,3,4,5,6,7-hexahydro-1H-pyrrolo[3,4-b]pyridin-1-yl)-N-(6-(5-methylpyridin-3-yl)pyridazin-3-yl)acetamide] returned a 50% inhibitory concentration (IC50) of under 100 nM.

Compound `O=C(CN1CCCC2=C1C(=O)N(C1CC1)C2=O)Nc1ccc(-c2cncc(C(F)(F)F)c2)nn1` [Compound 54, 2-(6-cyclopropyl-5,7-dioxo-2,3,4,5,6,7-hexahydro-1H-pyrrolo[3,4-b]pyridin-1-yl)-N-(6-(5-(trifluoromethyl)pyridin-3-yl)pyridazin-3-yl)acetamide] had an IC50 of under 100 nM.

As for `O=C(CN1CCCC2=C1C(=O)N(C1CC1)C2=O)Nc1ccc(-c2cccc(C(F)(F)F)c2)nn1` [Compound 55, 2-(6-cyclopropyl-5,7-dioxo-2,3,4,5,6,7-hexahydro-1H-pyrrolo[3,4-b]pyridin-1-yl)-N-(6-(3-(trifluoromethyl)phenyl)pyridazin-3-yl)acetamide], the IC50 is under 100 nM.

In the case of `O=C(CN1CCCC2=C1C(=O)N(C1CC1)C2=O)Nc1ccc(-c2cccc(OC(F)(F)F)c2)nn1` [Compound 56, 2-(6-cyclopropyl-5,7-dioxo-2,3,4,5,6,7-hexahydro-1H-pyrrolo[3,4-b]pyridin-1-yl)-N-(6-(3-(trifluoromethoxy)phenyl)pyridazin-3-yl)acetamide], the IC50 is under 1000 nM.

In the case of `O=C(CN1CCCC2=C1C(=O)N(C1CC1)C2=O)Nc1ccc(-c2ccc(OC(F)(F)F)cc2)nn1` [Compound 57, 2-(6-cyclopropyl-5,7-dioxo-2,3,4,5,6,7-hexahydro-1H-pyrrolo[3,4-b]pyridin-1-yl)-N-(6-(4-(trifluoromethoxy)phenyl)pyridazin-3-yl)acetamide], the half-maximal inhibitory concentration (IC50) is under 1000 nM.

Compound `O=C(CN1CCCC2=C1C(=O)N(C1CC1)C2=O)Nc1ccc(-c2cncc(Cl)c2)nn1` [Compound 58, N-(6-(5-chloropyridin-3-yl)pyridazin-3-yl)-2-(6-cyclopropyl-5,7-dioxo-2,3,4,5,6,7-hexahydro-1H-pyrrolo[3,4-b]pyridin-1-yl)acetamide] showed an IC50 of under 100 nM.

As to `O=C(CN1CCCC2=C1C(=O)N(C1CC1)C2=O)Nc1ccc(-c2cccnc2)nc1` [Compound 59, N-(2,3′-bipyridin-5-yl)-2-(6-cyclopropyl-5,7-dioxo-2,3,4,5,6,7-hexahydro-1H-pyrrolo[3,4-b]pyridin-1-yl)acetamide], the half-maximal inhibitory concentration (IC50) is under 100 nM.

As to `CC(C(=O)Nc1ccc(-c2cccnc2)nn1)N1CCCC2=C1C(=O)N(C)C2=O` (centres unmarked) [Compound 60, 2-(6-methyl-5,7-dioxo-2,3,4,5,6,7-hexahydro-1H-pyrrolo[3,4-b]pyridin-1-yl)-N-(6-(pyridin-3-yl)pyridazin-3-yl)propanamide], the IC50 is under 100 nM.

In turn, `O=C(CN1CCCC2=C1C(=O)N(C1CC1)C2=O)Nc1ccc(-c2cncc(C(F)F)c2)nn1` [Compound 61] gave a half-maximal inhibitory concentration (IC50) of under 100 nM.

`Cc1cc(NC(=O)CN2CCCC3=C2C(=O)N(C2CC2)C3=O)nnc1-c1cccnc1` [Compound 62, 2-(6-cyclopropyl-5,7-dioxo-2,3,4,5,6,7-hexahydro-1H-pyrrolo[3,4-b]pyridin-1-yl)-N-(5-methyl-6-(pyridin-3-yl)pyridazin-3-yl)acetamide]: the half-maximal inhibitory concentration (IC50) was under 5000 nM.

The compound `CN1C(=O)c2c(n(CC(=O)Nc3ccc(-c4cccnc4)cn3)ccc2=O)C1=O` [Compound 63, N-(3,3′-bipyridin-6-yl)-2-(6-methyl-4,5,7-trioxo-4,5,6,7-tetrahydro-1H-pyrrolo[3,4-b]pyridin-1-yl)acetamide] registered an IC50 of under 1000 nM.

Compound `CN1C(=O)c2c(n(CC(=O)Nc3ccc(-c4cccnc4)nn3)ccc2=O)C1=O` [Compound 64, 2-(6-methyl-4,5,7-trioxo-4,5,6,7-tetrahydro-1H-pyrrolo[3,4-b]pyridin-1-yl)-N-(6-(pyridin-3-yl)pyridazin-3-yl)acetamide] displayed an IC50 of under 1000 nM.

As for `O=C(CN1CCCC2=C1C(=O)N(C1CC1)C2=O)Nc1ccc(-c2ccccc2)cc1` [Compound 67, N-([1,1′-biphenyl]-4-yl)-2-(6-cyclopropyl-5,7-dioxo-2,3,4,5,6,7-hexahydro-1H-pyrrolo[3,4-b]pyridin-1-yl)acetamide], the IC50 was under 100 nM.

As for `Cc1cncc(-c2ncc(NC(=O)CN3CCCC4=C3C(=O)N(C3CC3)C4=O)cc2C)c1` [Compound 68, 2-(6-cyclopropyl-5,7-dioxo-2,3,4,5,6,7-hexahydro-1H-pyrrolo[3,4-b]pyridin-1-yl)-N-(3,5′-dimethyl-[2,3′-bipyridin]-5-yl)acetamide], the IC50 is under 100 nM.

`O=C(CN1CCCC2=C1C(=O)N(C1CC1)C2=O)Nc1ccc(-c2ccc(F)nc2)nn1` [Compound 69, 2-(6-cyclopropyl-5,7-dioxo-2,3,4,5,6,7-hexahydro-1H-pyrrolo[3,4-b]pyridin-1-yl)-N-(6-(6-fluoropyridin-3-yl)pyridazin-3-yl)acetamide] showed an IC50 of under 100 nM.

For `CN1C(=O)C2=C(C1=O)N(CC(=O)Nc1ccc(-c3ccccc3)cc1)CCC2` [Compound 70, N-([1,1′-biphenyl]-4-yl)-2-(6-methyl-5,7-dioxo-2,3,4,5,6,7-hexahydro-1H-pyrrolo[3,4-b]pyridin-1-yl)acetamide], the 50% inhibitory concentration (IC50) was under 100 nM.

Compound `CN1C(=O)C2=C(C1=O)N(CC(=O)Nc1ccc(-c3ccncc3)nn1)CCC2` [Compound 71, 2-(6-methyl-5,7-dioxo-2,3,4,5,6,7-hexahydro-1H-pyrrolo[3,4-b]pyridin-1-yl)-N-(6-(pyridin-4-yl)pyridazin-3-yl)acetamide] returned an IC50 of under 1000 nM.

For `CN1C(=O)C2=C(C1=O)N(CC(=O)Nc1ccc(-c3cncc(F)c3)nn1)CCC2` [Compound 72, N-(6-(5-fluoropyridin-3-yl)pyridazin-3-yl)-2-(6-methyl-5,7-dioxo-2,3,4,5,6,7-hexahydro-1H-pyrrolo[3,4-b]pyridin-1-yl)acetamide], the IC50 was under 100 nM.

Compound `CN1C(=O)C2=C(C1=O)N(CC(=O)Nc1ccc(-c3ccncn3)cc1)CCC2` [Compound 73, 2-(6-methyl-5,7-dioxo-2,3,4,5,6,7-hexahydro-1H-pyrrolo[3,4-b]pyridin-1-yl)-N-(4-(pyrimidin-4-yl)phenyl)acetamide] had an IC50 of over 10000 nM.

With `CN1C(=O)C2=C(C1=O)N(CC(=O)Nc1ccc(-c3ncccn3)cc1)CCC2` [Compound 74, 2-(6-methyl-5,7-dioxo-2,3,4,5,6,7-hexahydro-1H-pyrrolo[3,4-b]pyridin-1-yl)-N-(4-(pyrimidin-2-yl)phenyl)acetamide], the IC50 is under 1000 nM.

Compound `CN1C(=O)C2=C(C1=O)N(CC(=O)Nc1ccc(-c3cncnc3)cc1)CCC2` [Compound 75, 2-(6-methyl-5,7-dioxo-2,3,4,5,6,7-hexahydro-1H-pyrrolo[3,4-b]pyridin-1-yl)-N-(4-(pyrimidin-5-yl)phenyl)acetamide] returned a half-inhibitory concentration (IC50) of under 100 nM.

On to `CN1C(=O)C2=C(C1=O)N(CC(=O)Nc1ccc(-c3ccccn3)cc1)CCC2` [Compound 76, 2-(6-methyl-5,7-dioxo-2,3,4,5,6,7-hexahydro-1H-pyrrolo[3,4-b]pyridin-1-yl)-N-(4-(pyridin-2-yl)phenyl)acetamide], for which the IC50 was under 100 nM.

One may read the IC50 as the point on the concentration scale where inhibition reaches its midpoint. Read a high IC50 as weaker potency in that assay.
